Measurements: ChEMBL document CHEMBL1201862, “PubChem BioAssay data set” (2004)
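These data come from cells grown in 96-well plates and exposed to compound for 48 hours at five concentrations. GI50 = concentration required for 50% inhibition of growth.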 Calls of active or inactive are those of the source. Rule as the data show it: active = GI50 up to about 1.1 µM and inactive = higher.

Legend:
Assay in all cases: NCI tumour cell line growth inhibition, 48 h
SF-539 = system: SF-539
DLD-1 = system: DLD-1
HCT-116 = system: HCT-116
NCI-H23 = system: NCI-H23
OVCAR-4 = system: OVCAR-4
NCI-H522 = system: NCI-H522
COLO 205 = system: COLO 205
786-0 = system: 786-0
HCT-15 = system: HCT-15
DMS-273 = system: DMS-273
SNB-75 = system: SNB-75
LXFL 529 = system: LXFL 529
SR = system: SR
RPMI-8226 = system: RPMI-8226
UO-31 = system: UO-31
HL-60 = system: HL-60
SK-OV-3 = system: SK-OV-3
IGROV-1 = system: IGROV-1
SK-MEL-2 = system: SK-MEL-2
NCI-H226 = system: NCI-H226
M14 = system: M14
SK-MEL-28 = system: SK-MEL-28
HOP-62 = system: HOP-62
SN12C = system: SN12C
UACC-62 = system: UACC-62
DMS-114 = system: DMS-114
HOP-92 = system: HOP-92
ACHN = system: ACHN
K562 = system: K562
HCC 2998 = system: HCC 2998
A498 = system: A498
MOLT-4 = system: MOLT-4
Malme-3M = system: Malme-3M
CCRF-CEM = system: CCRF-CEM
SF-268 = system: SF-268
CAKI-1 = system: CAKI-1
LOX IMVI = system: LOX IMVI
SNB-19 = system: SNB-19
OVCAR-5 = system: OVCAR-5
UACC-257 = system: UACC-257
SW-620 = system: SW-620
SF-295 = system: SF-295
SNB-78 = system: SNB-78
KM12 = system: KM12
MCF7 = system: MCF7
M19-MEL = system: M19-MEL
OVCAR-8 = system: OVCAR-8
KM-20L2 = system: KM-20L2
XF498 = system: XF498
U-251 = system: U-251
NCI/ADR-RES = system: NCI/ADR-RES
HT-29 = system: HT-29
EKVX = system: EKVX
TK-10 = system: TK-10
OVCAR-3 = system: OVCAR-3
NCI-H460 = system: NCI-H460
RXF 393 = system: RXF 393
SK-MEL-5 = system: SK-MEL-5
A549 = system: A549

COc1cc([C@H]2Oc3cc(O)c4c(=O)cc(-c5ccccc5)oc4c3O[C@@H]2CO)ccc1O
GI50 (SF-539): 22.2 µM (inactive)
GI50 (DLD-1): 46.9 µM (inactive)
GI50 (HCT-116): 30.1 µM (inactive)
GI50 (NCI-H23): 22.5 µM (inactive)
GI50 (OVCAR-4): 19.9 µM (inactive)
GI50 (NCI-H522): 19.3 µM (inactive)
GI50 (COLO 205): 69.5 µM (inactive)
GI50 (786-0): 23.4 µM (inactive)
GI50 (HCT-15): 91.2 µM
GI50 (DMS-273): 51.3 µM (inactive)
GI50 (SNB-75): 16.8 µM (inactive)
GI50 (LXFL 529): 21.6 µM (inactive)
GI50 (SR): 29.4 µM (inactive)
GI50 (RPMI-8226): 59.8 µM (inactive)
GI50 (UO-31): 13.8 µM (inactive)
GI50 (HL-60): 50.8 µM (inactive)
GI50 (SK-OV-3): 27.4 µM (inactive)
GI50 (IGROV-1): 34 µM (inactive)
GI50 (SK-MEL-2): 40.4 µM (inactive)
GI50 (NCI-H226): 32.4 µM (inactive)
GI50 (M14): 39 µM (inactive)
GI50 (SK-MEL-28): 28.6 µM (inactive)
GI50 (HOP-62): 55.1 µM (inactive)
GI50 (SN12C): 32.9 µM (inactive)
GI50 (UACC-62): 25.1 µM (inactive)
GI50 (DMS-114): 28 µM (inactive)
GI50 (HOP-92): 29.7 µM (inactive)
GI50 (ACHN): 20.3 µM (inactive)
GI50 (K562): 48.4 µM (inactive)
GI50 (HCC 2998): 58.5 µM (inactive)
GI50 (A498): 21.9 µM (inactive)
GI50 (MOLT-4): 46.5 µM (inactive)
GI50 (Malme-3M): 19 µM (inactive)
GI50 (CCRF-CEM): 65.6 µM (inactive)
GI50 (SF-268): 15.6 µM (inactive)
GI50 (CAKI-1): 26.4 µM (inactive)

CC1OC(O[C@@H]2C=C3CC[C@@H]4[C@H](CC[C@]5(C)[C@@H](c6ccc(=O)oc6)CC[C@]45O)[C@@]3(C)CC2)C(O)C(OC2OC(CO)C(O)C(O)C2O)C1O (stereo not given in full)
GI50 (DLD-1): 0.025 µM (active)
GI50 (LOX IMVI): 0.025 µM (active)
GI50 (SNB-19): 0.025 µM (active)
GI50 (HCT-116): 0.025 µM (active)
GI50 (COLO 205): 0.025 µM (active)
GI50 (HCT-15): 0.025 µM
GI50 (OVCAR-5): 0.0275 µM (active)
GI50 (SNB-75): 0.025 µM (active)
GI50 (RPMI-8226): 0.025 µM (active)
GI50 (UO-31): 0.025 µM (active)
GI50 (HL-60): 0.025 µM (active)
GI50 (UACC-257): 0.025 µM (active)
GI50 (IGROV-1): 0.025 µM (active)
GI50 (SK-MEL-2): 0.025 µM (active)
GI50 (SW-620): 0.025 µM (active)
GI50 (NCI-H226): 0.0255 µM (active)
GI50 (SF-295): 0.025 µM (active)
GI50 (SNB-78): 0.025 µM (active)
GI50 (SK-MEL-28): 0.025 µM (active)
GI50 (SN12C): 0.025 µM (active)
GI50 (KM12): 0.025 µM (active)
GI50 (UACC-62): 0.025 µM (active)
GI50 (MCF7): 0.025 µM (active)
GI50 (M19-MEL): 0.025 µM (active)
GI50 (HOP-92): 0.025 µM (active)
GI50 (OVCAR-8): 0.025 µM (active)
GI50 (KM-20L2): 0.025 µM (active)
GI50 (K562): 0.025 µM (active)
GI50 (XF498): 0.025 µM (active)
GI50 (HCC 2998): 0.025 µM (active)
GI50 (A498): 0.025 µM (active)
GI50 (U-251): 0.025 µM (active)
GI50 (NCI/ADR-RES): 0.025 µM (active)
GI50 (CCRF-CEM): 0.025 µM (active)
GI50 (HT-29): 0.0281 µM (active)
GI50 (EKVX): 0.025 µM (active)

CC1=NN(C(=O)c2ccc(Cl)cc2)C(=O)/C1=C/c1ccccc1O
GI50 (SF-539): > 100 µM (inactive)
GI50 (TK-10): > 100 µM (inactive)
GI50 (DLD-1): > 100 µM (inactive)
GI50 (LOX IMVI): > 100 µM (inactive)
GI50 (SNB-19): > 100 µM (inactive)
GI50 (OVCAR-3): > 100 µM (inactive)
GI50 (HCT-116): > 100 µM (inactive)
GI50 (NCI-H23): > 100 µM (inactive)
GI50 (OVCAR-4): > 100 µM (inactive)
GI50 (NCI-H460): > 100 µM (inactive)
GI50 (RXF 393): > 100 µM (inactive)
GI50 (NCI-H522): > 100 µM (inactive)
GI50 (COLO 205): > 100 µM (inactive)
GI50 (786-0): > 100 µM (inactive)
GI50 (HCT-15): > 100 µM
GI50 (SK-MEL-5): > 100 µM (inactive)
GI50 (OVCAR-5): > 100 µM (inactive)
GI50 (LXFL 529): > 100 µM (inactive)
GI50 (RPMI-8226): > 100 µM (inactive)
GI50 (UO-31): > 100 µM (inactive)
GI50 (HL-60): > 100 µM (inactive)
GI50 (UACC-257): > 100 µM (inactive)
GI50 (SK-OV-3): > 100 µM (inactive)
GI50 (IGROV-1): > 100 µM (inactive)
GI50 (SK-MEL-2): > 100 µM (inactive)
GI50 (SW-620): > 100 µM (inactive)
GI50 (SF-295): > 100 µM (inactive)
GI50 (SNB-78): > 100 µM (inactive)
GI50 (M14): > 100 µM (inactive)
GI50 (SK-MEL-28): > 100 µM (inactive)
GI50 (HOP-62): > 100 µM (inactive)
GI50 (SN12C): > 100 µM (inactive)
GI50 (KM12): > 100 µM (inactive)
GI50 (UACC-62): > 100 µM (inactive)
GI50 (DMS-114): > 100 µM (inactive)
GI50 (M19-MEL): > 100 µM (inactive)
GI50 (HOP-92): > 100 µM (inactive)
GI50 (ACHN): > 100 µM (inactive)
GI50 (OVCAR-8): > 100 µM (inactive)
GI50 (KM-20L2): > 100 µM (inactive)
GI50 (K562): > 100 µM (inactive)
GI50 (XF498): > 100 µM (inactive)
GI50 (HCC 2998): > 100 µM (inactive)
GI50 (A498): > 100 µM (inactive)
GI50 (U-251): > 100 µM (inactive)
GI50 (A549): > 100 µM (inactive)
GI50 (MOLT-4): > 100 µM (inactive)
GI50 (Malme-3M): > 100 µM (inactive)
GI50 (CCRF-CEM): > 100 µM (inactive)
GI50 (HT-29): > 100 µM (inactive)
GI50 (EKVX): > 100 µM (inactive)
GI50 (SF-268): > 100 µM (inactive)
GI50 (CAKI-1): > 100 µM (inactive)
